Test system: AAV-A53T α-synuclein rat model
Test: Size of α-synuclein-positive aggregates in the striatum
Type: in vivo
Conditions: for maximum aggregate size measured: striatum
Text: Fixed tissue blocks were immersed in 30% sucrose for cryoprotection and sectioned frozen on a sliding microtome (30 μm section thickness for striatal sections; 40 μm section thickness for SN sections). Sections through the rostro-caudal extent of the SN were collected and every sixth section from the SN was processed for tyrosine hydroxylase (TH) immunohistochemistry to be used for stereological cell counting. Three striatal sections from approximately the level of the decussation of the anterior commissure in each case were processed for α-synuclein immunohistochemistry. For immunohistochemistry, sections were washed and permeabilized with PBS containing 0.2% Triton X-100. Endogenous peroxidase activity was quenched using 3% hydrogen peroxide in PBS containing 0.2% Triton X-100. Sections were then blocked in PBS/triton X-100 containing 10% normal goat serum and 2% BSA, followed by primary antibody incubation (TH (rabbit anti-TH, 1:2,000, Pel-Freez); α-synuclein (mouse anti-α-synuclein clone 211; 1:2000, Millipore) overnight at 4° C. The following day, sections were washed in PBS and incubated in biotinylated secondary antibody (goat-anti-rabbit 1:4000 for TH; goat-anti-mouse 1:2000 for α-synuclein 1:2000, VECTOR Laboratories), followed by additional washes and incubation in avidin biotin complex (VECTASTAIN Elite ABC system, VECTOR Laboratories). The reaction product was visualized with 3,3′-diaminobenzidine (DAB) (Immpact DAB, VECTOR Laboratories). Sections were then mounted, dehydrated, cleared and coverslipped. Sections stained for visualization of TH and to be used for stereological cell counting were counterstained with cresyl violet prior to coverslipping. […] Slides were coded and analyzed blindly. […] Cells were then counted at high power (100×) using a counting frame measuring 60 μm^2. […] This process was repeated for each section in the series for a given animal, and a total of 7-8 sections/animal were analyzed. Nissl-stained cells were counted concurrently in the same sections using the same sampling parameters. […]
Immunoblotting for α-synuclein expression was performed using the Wes western blot system (ProteinSimple). […] The sizes of α-synuclein-positive swelling/aggregates were measured in 3 fields (one medial, one central and one lateral) from 1 coronal section (at the approximate level of the decussation of the anterior commissure). Photographs were captured using a 40× objective on a Nikon Eclipse Ni microscope and α-synuclein-positive structures with an area >5 μm2 were considered as aggregates and were measured using Nikon MS Elements AR software. Data are presented as the distribution of aggregate sizes in the three striatal regions measured.

[1] = delayed start GM1 (3 weeks after AAV-A53T)
[2] = early start GM1 (24 hours after AAV-A53T)

GM1 ganglioside
size distribution of striatal α-synuclein-positive aggregates, GM1 vs saline [1]: greater numbers of larger sized aggregates in the saline-treated group compared to the GM1 group
maximum aggregate size measured [1]: 29.3 μm^2
size distribution of striatal α-synuclein-positive aggregates, GM1 vs saline [2]: larger numbers of smaller sized aggregates and fewer larger sized aggregates
maximum aggregate size measured [2]: 28.8 μm^2
